# Test results as given in patent US20040006136A1, “Anthelmintics for preventing parasitic infections in human and animals” (priority 2000, published 2004).
# Key:
# [1] = tested on: Schistosoma mansoni cercariae; experiment: Activity against Schistosoma mansoni cercariae (survival/mobility in water); type: cell-based; settings: 500 μl/l final concentration of the active compound; PEG300/aquarium water; test period of 120 minutes
# Protocol: Activity Against Schistosoma mansoni cercariae
# [500 μl/l Final Concentration of the Active Compounds]
# Snails (Biomphalaria glabrata) were infected by incubating each of them with 8 miracidia in 10 ml of water overnight. About 6 to 9 weeks after the infection, cercariae were obtained by irradiating the snails, which had been kept in darkness, with light, followed by collection of the swarming cercariae within 2 hours.
# Such an amount of cercariae-containing water (1 or 2 ml, see below) was added to the test batches that each batch contained about 100 to 150 cercariae.
# 5 μl of active compound were mixed thoroughly with 25 μl of PEG300. 9 ml of aquarium water was then added, and the batch was shaken vigorously. After (delayed) addition of 1 ml of cercariae suspension, survival of the cercariae was in each case observed immediately using a stereomagnifier.
# [2] = tested on: cercariae of Schistosoma mansoni; settings: Fripp and Armstrong 1973; cited from earlier work
# [3] = tested on: cercariae of Schistosoma mansoni; settings: topical agent; Salafsky et al. 1998; cited from earlier work
# [4] = tested on: cercariae of Schistosoma mansoni; settings: topical, monkeys; Bruce et al. 1992; cited from earlier work
smiles,measurement,setting,value
CCCCOC(=O)CN(CCCC)C(C)=O,activity of the active compounds against cercariae (classification 0-3),[1],1
Oc1c(Cl)cc(Cl)c(Cl)c1Cc1c(O)c(Cl)cc(Cl)c1Cl [hexachlorophene],effect on cercariae of Schistosoma mansoni,[2],lethal effect
"CCN(CC)C(=O)c1cccc(C)c1 [N,N-Diethyl-m-toluamide (DEET), N,N-Diethyl-m-toluamide]",action against cercariae of Schistosoma mansoni,[3],acts against cercariae
O=C(Nc1ccc([N+](=O)[O-])cc1Cl)c1cc(Cl)ccc1O [Niclosamide],action against the penetration of cercariae,[4],acts against the penetration of cercariae
